Results taken from patent US20120016155A1, “DIASTEREOISOMERS OF HYPOPHOSPHOROUS ACID DERIVATIVES” (priority 2009, published 2012).
Structures can show the parent of a compound that is named as a salt. Where two headings read alike, the source gives them in different places.

How the values were obtained:
Format in all cases: cell-based
mGlu6 = mGlu6 (Homo sapiens, UniProt O15303); test: Activities on metabotropic glutamate receptor 6 (EC50; readout marked IP or by a symbol); details: mean ± spread (n), read-out: mG1u6 EC50 μM (n) (converted)
Sequence of mGlu6 (O15303 25-877): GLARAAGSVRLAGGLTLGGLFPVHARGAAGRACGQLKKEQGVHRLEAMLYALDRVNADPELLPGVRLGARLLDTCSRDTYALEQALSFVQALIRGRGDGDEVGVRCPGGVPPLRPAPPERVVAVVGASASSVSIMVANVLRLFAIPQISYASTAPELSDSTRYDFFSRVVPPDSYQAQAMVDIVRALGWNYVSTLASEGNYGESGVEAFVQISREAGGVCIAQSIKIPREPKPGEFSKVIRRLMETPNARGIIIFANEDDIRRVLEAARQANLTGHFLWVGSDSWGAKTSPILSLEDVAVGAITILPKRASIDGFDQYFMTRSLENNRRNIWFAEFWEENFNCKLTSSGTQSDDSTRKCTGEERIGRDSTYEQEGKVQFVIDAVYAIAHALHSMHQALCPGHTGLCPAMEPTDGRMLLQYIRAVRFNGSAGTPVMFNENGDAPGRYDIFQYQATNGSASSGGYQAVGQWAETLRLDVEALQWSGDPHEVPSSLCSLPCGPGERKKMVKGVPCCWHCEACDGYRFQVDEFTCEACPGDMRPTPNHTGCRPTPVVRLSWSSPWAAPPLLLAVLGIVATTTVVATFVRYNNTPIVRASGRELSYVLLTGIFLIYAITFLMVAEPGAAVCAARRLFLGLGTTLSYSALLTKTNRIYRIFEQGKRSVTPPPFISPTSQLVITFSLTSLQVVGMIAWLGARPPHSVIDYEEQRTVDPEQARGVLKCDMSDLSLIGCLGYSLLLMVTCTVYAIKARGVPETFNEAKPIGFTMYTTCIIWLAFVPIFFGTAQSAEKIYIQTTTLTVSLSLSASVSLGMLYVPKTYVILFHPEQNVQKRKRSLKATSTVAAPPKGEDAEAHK
Text: (§1) Activities on Metabotropic Glutamate Receptors 4, 8, 6 and 7.
(§2) Nitrobenzyl PCEP Derivatives

mGlu7 = mGlu7 (Homo sapiens, UniProt Q14831); test: Activities on metabotropic glutamate receptor 7 (EC50; readout marked IP or by a symbol); details: mean ± spread (n), read-out: mG1u7 EC50 μM (n) (converted)
Sequence of mGlu7 (Q14831 35-915): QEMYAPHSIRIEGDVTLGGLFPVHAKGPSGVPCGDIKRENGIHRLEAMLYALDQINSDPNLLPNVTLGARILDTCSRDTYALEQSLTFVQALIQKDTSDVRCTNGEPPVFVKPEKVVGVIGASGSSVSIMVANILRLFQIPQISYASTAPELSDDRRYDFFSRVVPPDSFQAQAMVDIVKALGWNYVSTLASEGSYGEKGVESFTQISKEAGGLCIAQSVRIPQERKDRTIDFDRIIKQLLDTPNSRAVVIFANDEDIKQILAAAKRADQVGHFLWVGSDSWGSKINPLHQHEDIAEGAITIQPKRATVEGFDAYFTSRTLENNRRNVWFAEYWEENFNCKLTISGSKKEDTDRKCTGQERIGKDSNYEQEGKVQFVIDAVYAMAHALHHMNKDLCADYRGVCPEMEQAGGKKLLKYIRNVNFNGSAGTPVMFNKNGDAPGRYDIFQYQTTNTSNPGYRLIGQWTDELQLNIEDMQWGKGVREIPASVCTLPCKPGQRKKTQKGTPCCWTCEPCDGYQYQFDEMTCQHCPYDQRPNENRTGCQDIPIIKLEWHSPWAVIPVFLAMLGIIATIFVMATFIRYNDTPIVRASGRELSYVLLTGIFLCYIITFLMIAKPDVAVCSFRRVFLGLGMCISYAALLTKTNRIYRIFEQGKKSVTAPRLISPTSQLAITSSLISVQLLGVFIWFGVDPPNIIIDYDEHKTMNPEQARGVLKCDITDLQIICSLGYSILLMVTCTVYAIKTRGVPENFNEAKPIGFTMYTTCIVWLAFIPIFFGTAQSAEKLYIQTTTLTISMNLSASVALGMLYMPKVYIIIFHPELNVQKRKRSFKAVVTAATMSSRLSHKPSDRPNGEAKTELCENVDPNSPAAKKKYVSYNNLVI
Text: as §1, §2

mGlu8 = mGlu8 (Homo sapiens, UniProt O00222); test: Activities on metabotropic glutamate receptor 8 (EC50; readout marked IP or by a symbol)
Sequence of mGlu8 (O00222 34-908): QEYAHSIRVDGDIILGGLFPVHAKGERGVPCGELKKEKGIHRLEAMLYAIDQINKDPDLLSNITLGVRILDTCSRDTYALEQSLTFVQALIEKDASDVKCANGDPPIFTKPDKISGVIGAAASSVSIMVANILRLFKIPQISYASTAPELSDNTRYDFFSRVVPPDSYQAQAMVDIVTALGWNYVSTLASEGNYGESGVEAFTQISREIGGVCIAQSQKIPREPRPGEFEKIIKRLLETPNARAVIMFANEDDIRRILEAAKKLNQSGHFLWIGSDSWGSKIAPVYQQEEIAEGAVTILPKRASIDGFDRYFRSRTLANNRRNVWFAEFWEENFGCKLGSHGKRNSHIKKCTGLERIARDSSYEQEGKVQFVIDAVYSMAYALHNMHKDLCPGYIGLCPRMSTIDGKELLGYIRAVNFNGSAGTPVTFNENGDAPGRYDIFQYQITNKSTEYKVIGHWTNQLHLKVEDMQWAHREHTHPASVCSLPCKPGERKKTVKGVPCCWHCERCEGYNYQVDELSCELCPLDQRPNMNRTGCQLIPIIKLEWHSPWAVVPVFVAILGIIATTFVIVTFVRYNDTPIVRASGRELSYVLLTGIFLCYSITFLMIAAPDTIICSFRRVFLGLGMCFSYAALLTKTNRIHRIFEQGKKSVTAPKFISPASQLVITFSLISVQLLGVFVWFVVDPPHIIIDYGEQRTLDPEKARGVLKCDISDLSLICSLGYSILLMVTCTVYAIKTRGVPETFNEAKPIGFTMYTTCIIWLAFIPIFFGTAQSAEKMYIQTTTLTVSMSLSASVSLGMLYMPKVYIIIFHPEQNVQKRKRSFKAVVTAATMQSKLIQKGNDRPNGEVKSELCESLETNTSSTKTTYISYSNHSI
Text: as §1, §2

mGlu4 = mGlu4 (Homo sapiens, UniProt Q14833); test: Activities on metabotropic glutamate receptor 4 (EC50; readout marked IP or by a symbol); details: for mGlu8/4 EC50 ratio: ratio of mGlu8 EC50 to mGlu4 EC50, one per pair of values (readout/batch)
Sequence of mGlu4 (Q14833 33-912): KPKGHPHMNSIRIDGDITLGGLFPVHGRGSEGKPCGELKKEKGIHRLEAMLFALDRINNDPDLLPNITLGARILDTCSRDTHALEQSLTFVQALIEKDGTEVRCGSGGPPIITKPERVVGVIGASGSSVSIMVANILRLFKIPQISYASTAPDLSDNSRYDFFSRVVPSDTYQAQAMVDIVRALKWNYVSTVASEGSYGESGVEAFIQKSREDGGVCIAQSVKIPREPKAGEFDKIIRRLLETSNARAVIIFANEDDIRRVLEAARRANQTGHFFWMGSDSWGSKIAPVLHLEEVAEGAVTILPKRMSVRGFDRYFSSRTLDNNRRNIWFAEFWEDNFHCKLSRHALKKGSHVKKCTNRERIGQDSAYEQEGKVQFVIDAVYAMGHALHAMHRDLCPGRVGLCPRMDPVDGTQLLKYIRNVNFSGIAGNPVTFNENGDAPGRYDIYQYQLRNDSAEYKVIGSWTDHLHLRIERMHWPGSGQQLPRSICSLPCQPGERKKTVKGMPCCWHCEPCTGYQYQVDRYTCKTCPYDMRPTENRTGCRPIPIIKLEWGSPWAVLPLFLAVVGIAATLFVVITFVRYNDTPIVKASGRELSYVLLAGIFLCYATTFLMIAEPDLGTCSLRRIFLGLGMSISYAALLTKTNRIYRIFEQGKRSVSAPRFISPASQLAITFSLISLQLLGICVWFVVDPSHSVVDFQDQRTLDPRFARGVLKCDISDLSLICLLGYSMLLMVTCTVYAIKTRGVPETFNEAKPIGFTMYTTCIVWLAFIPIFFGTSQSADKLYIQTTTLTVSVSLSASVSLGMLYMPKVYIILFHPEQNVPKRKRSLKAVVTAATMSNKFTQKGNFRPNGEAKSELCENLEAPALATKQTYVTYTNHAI
Text: as §1, §2

[1] = values marked IP, mean ± spread (n)
[2] = values marked with an image symbol (second readout, not IP)
[3] = values marked with an image symbol (second readout, not IP), mean ± spread (n)

| SMILES | mGlu8/4 EC50 ratio (mGlu4) | EC50 (mGlu4; [3]) | EC50 (mGlu8; [3]) | other results |
| --- | --- | --- | --- | --- |
| N[C@@H](CCP(=O)(O)C(O)c1cccc([N+](=O)[O-])c1)C(=O)O (mixture of isomers) [LSP1-2093, (3S)-3-[(((3-ammonium-3-carboxy)propyl)(hydroxy)phosphinyl)-hydroxymethyl]3-nitrobenzene] |  |  |  | EC50 (mGlu6; values marked IP): 8.8 ± 0.7 µM; EC50 (mGlu7; values marked IP): > 1000 µM; EC50 (mGlu8; [1]): 1.5 ± 0.5 µM |
| COc1cc(C(O)P(=O)(O)CC[C@H](N)C(=O)O)cc([N+](=O)[O-])c1O (mixture of isomers) [LSP1-2111, (3S)-3-[(((3-ammonium-3-carboxy)propyl)(hydroxy)phosphinyl)-hydroxymethyl]4-hydroxy-5-methoxy-3-nitrobenzene] |  |  |  | EC50 (mGlu6; values marked IP): 1.7 ± 0.1 µM; EC50 (mGlu6; [2]): 3.18 µM; EC50 (mGlu4; value printed without readout mark, read-out: mGlu4 EC50 μM (n) (converted)): 1.5 µM; EC50 (mGlu4; [1]): 2.2 ± 0.3 µM; EC50 (mGlu7; values marked IP): 53 ± 20 µM; EC50 (mGlu7; [2]): 101 µM; EC50 (mGlu8; value printed without readout mark, read-out: mGlu8 EC50 μM (n) (converted)): 113 µM; EC50 (mGlu8; [1]): 66 ± 12 µM |
| COc1ccc(C(O)P(=O)(O)CC[C@H](N)C(=O)O)cc1[N+](=O)[O-] (single isomer, unassigned) [LSP2-6146-I, hydrochloride] |  | 2 ± 0.4 µM | 2.5 ± 0.8 µM | mGlu8/4 EC50 ratio (mGlu4; hydrochloride): 1.2 |
| COc1ccc(C(O)P(=O)(O)CC[C@H](N)C(=O)O)cc1[N+](=O)[O-] (single isomer, unassigned) [LSP2-6146-II, hydrochloride] | 1.3 | 1.7 ± 0.6 µM | 2.2 ± 0.6 µM |  |
| NC(CCP(=O)(O)C(O)c1cccc([N+](=O)[O-])c1)C(=O)O (single isomer, unassigned) [LSP3-1098-I, hydrochloride] |  | 1 ± 0.4 µM | 1.25 ± 0.3 µM |  |
| NC(CCP(=O)(O)C(O)c1cccc([N+](=O)[O-])c1)C(=O)O (single isomer, unassigned) [LSP3-1098-II, hydrochloride] |  | 0.9 ± 0.4 µM | 1.3 ± 0.5 µM |  |
| COc1cc(C(O)P(=O)(O)CC[C@H](N)C(=O)O)cc([N+](=O)[O-])c1O (single isomer, unassigned) [LSP3-1101-I, hydrochloride] |  | 0.74 ± 0.09 µM | 23 ± 6 µM | EC50 (mGlu6; [2]): 1.11 ± 0.41 µM; mGlu8/4 EC50 ratio (mGlu4; hydrochloride): 31; EC50 (mGlu7; [2]): 63 ± 35 µM |
| COc1cc(C(O)P(=O)(O)CC[C@H](N)C(=O)O)cc([N+](=O)[O-])c1O (single isomer, unassigned) [LSP3-1101-II, hydrochloride] | 5.9 | 4.7 ± 0.4 µM | 27 ± 14 µM | EC50 (mGlu6; [2]): 2.36 ± 0.77 µM; EC50 (mGlu7; [2]): 100 ± 49 µM |
| CCOc1cc(C(O)P(=O)(O)CC[C@H](N)C(=O)O)cc([N+](=O)[O-])c1O (single isomer, unassigned) [LSP3-1143-I, hydrochloride] |  | 5.1 ± 1.2 µM | 33 ± 31 µM | mGlu8/4 EC50 ratio (mGlu4; hydrochloride): 6.5 |
| CCOc1cc(C(O)P(=O)(O)CC[C@H](N)C(=O)O)cc([N+](=O)[O-])c1O (single isomer, unassigned) [LSP3-1143-II, hydrochloride] | 1.4 | 6.4 ± 2.4 µM | 9.2 ± 2.6 µM |  |
| COc1ccc(C(O)P(=O)(O)CC[C@H](N)C(=O)O)cc1[N+](=O)[O-] (stereo partly drawn) [LSP1-2101, (3S)-3-[(((3-amino-3-carboxy)propyl) (hydroxy)phosphinyl)-hydroxymethyl]-4-methoxy-3-nitrobenzene] |  | 4.2 µM | 4.4 µM | EC50 (mGlu4; [1]): 0.5 ± 0.09 µM; EC50 (mGlu8; [1]): 0.85 ± 0.07 µM |
| N[C@@H](CCP(=O)(O)C(O)c1ccc(O)c([N+](=O)[O-])c1)C(=O)O (stereo partly drawn) [LSP1-2109, (3S)-3-[(((3-amino-3-carboxy)propyl) (hydroxy)phosphinyl)-hydroxymethyl]-4-hydroxy-3-nitrobenzene] |  |  |  | EC50 (mGlu6; values marked IP): 6 ± 0.9 µM; EC50 (mGlu6; [2]): 6.3 µM; EC50 (mGlu7; values marked IP): 69 ± 8 µM; EC50 (mGlu7; [2]): 125 µM |
| NC(c1cccc([N+](=O)[O-])c1)P(=O)(O)CC[C@H](N)C(=O)O (stereo partly drawn) [LSP1-3131, (2S)-amino-4-[[amino(3-nitrophenyl)methyl](hydroxy)phosphinyl]butanoic acid] | 4.1 |  |  | EC50 (mGlu4; [1]): 0.54 ± 0.14 µM; EC50 (mGlu8; [1]): 2.2 ± 0.9 µM |
| N[C@@H](CCP(=O)(O)Cc1cccc([N+](=O)[O-])c1)C(=O)O [LSP3-1045, (3S)-3-[(((3-ammonium-3-carboxy)propyl) (hydroxy)phosphinyl)-methyl]3-nitrobenzene] |  | 0.42 µM | 1 µM | EC50 (mGlu4; [1]): 0.8 ± 0.2 µM; EC50 (mGlu8; [1]): 4.4 ± 2 µM |
| COc1cc(CP(=O)(O)CC[C@H](N)C(=O)O)cc([N+](=O)[O-])c1O.N [LSP3-2134, (3S)-3-[(((3-ammonium-3-carboxy)propyl)(hydroxy)phosphinyl)-methyl]4-hydroxy-5-methoxy-3-nitrobenzene] | 0.85 | 19.7 ± 10.5 µM | 16.6 ± 1.1 µM |  |

Now from value to compound, other results behind:

| mGlu8/4 EC50 ratio (mGlu4) | EC50 (mGlu4; [3]) | EC50 (mGlu8; [3]) | SMILES | other results |
| --- | --- | --- | --- | --- |
| 3.1 | 8.5 ± 1.1 µM | 27 ± 20 µM | CCOc1cc(C(O)P(=O)(O)CC[C@H](N)C(=O)O)cc([N+](=O)[O-])c1O (mixture of isomers) [LSP3-1145, (3S)-3-[(((3-ammonium-3-carboxy)propyl)(hydroxy)phosphinyl)-hydroxymethyl]4-hydroxy-5-ethoxy-3-nitrobenzene] |  |
|  | 0.5 ± 0.07 µM | 31.5 ± 8.6 µM | N[C@@H](CCP(=O)(O)C(O)c1ccc(O)c([N+](=O)[O-])c1)C(=O)O (single isomer, unassigned) [LSP3-2074-I, hydrochloride] | EC50 (mGlu6; [2]): 3.9 ± 1.7 µM; mGlu8/4 EC50 ratio (mGlu4; hydrochloride): 63; EC50 (mGlu7; [2]): 62 ± 26 µM |
|  | 4.5 ± 0.2 µM | 39.8 ± 6.5 µM | Cl.N[C@@H](CCP(=O)(O)C(O)c1ccc(O)c([N+](=O)[O-])c1)C(=O)O (single isomer, unassigned) [LSP3-2074-II, hydrochloride] | EC50 (mGlu6; [2]): 68.4 ± 14.5 µM; EC50 (mGlu7; [2]): 295 ± 178 µM |
| 8.5 |  |  | Cl.N[C@@H](CCP(=O)(O)C(O)c1ccc(O)c([N+](=O)[O-])c1)C(=O)O (single isomer, unassigned) [LSP3-2074-II] |  |
| 2.3 | 13 ± 2.9 µM | 29.3 ± 7.2 µM | N[C@@H](CCP(=O)(O)C(O)c1cccc(OCC(=O)O)c1)C(=O)O (single isomer, unassigned) [LSP3-3108-II] |  |
| 7.4 | 4.9 ± 1 µM | 36 ± 18 µM | N[C@@H](CCP(=O)(O)C(O)c1cccc(OCC(=O)O)c1)C(=O)O (single isomer, unassigned) [LSP3-3108-I] |  |
| 9.4 | 7.6 ± 2 µM | 71 ± 25 µM | N[C@@H](CCP(=O)(O)C(O)c1cccc(OCC(=O)O)c1)C(=O)O (stereo partly shown) [LSP3-3099] |  |
|  | 13 ± 3.9 µM | 33 ± 12 µM | COc1cc(C(N)P(=O)(O)CC[C@H](N)C(=O)O)cc([N+](=O)[O-])c1O (stereo partly drawn) [LSP4-1184, (2S)-amino-4-[[amino(4-hydroxy-5-methoxy-3-nitrophenyl)methyl](hydroxy)phosphoryl]butanoic acid] |  |
